In data set [1] the test system is rats. Put plainly: Forced swim test (FST), latency to become immobile on re-test. The data set is classed as in vivo, rat. The conditions noted are these: for Latencies to become immobile on the re-test day in the FST: standard antidepressants vs vehicle (0 mg/kg), FIG. 3A; for Latencies to become immobile in the FST: kappa antagonist given ICV (norBNI 5.0 or 20 μg), FIG. 5 and 6A. On the procedure:
Another symptom of clinical depression that can be modeled in rats is despair, a feeling of hopelessness. Symptoms of despair can be induced in rats using the forced swim test (FST), a highly validated model used to study antidepressant treatments.
The FST is a two day procedure in which rats swim under conditions in which escape is not possible. On the first day, the rats are forced to swim for 15 minutes. The rats initially search for an escape from the water, but eventually adopt a posture of immobility in which they make only the movements necessary to keep their heads above water. Upon re-testing one day later, latencies to become immobile—an indicator of how rapidly the rats “give up” in response to a familiar stressor—are decreased, which is inferred as despair. Standard antidepressants such as desipramine (DMI) and fluoxetine (FLX) extend latencies to become immobile. Drug efficacy in this animal model is predictive of antidepressant efficacy in humans.
CREB-mediated increases in dynorphin expression within the NAc underlie the decreases in the pleasurable effects of cocaine in the place conditioning paradigm: blockade of brain kappa opioid receptors (on which dynorphin acts) eliminates CREB-induced aversion to cocaine. To determine whether disruption of dynorphin function also eliminates CREB-induced despair in the FST, brain kappa receptors were blocked with either norBNI (nor-binaltorphimine) or GNTI (5′-guanidinyl-17-(cyclopropylmethyl)-6,7-dehydro-4,5α-epoxy-3,14-dihydroxy-6,7-2′,3′-indolomorphinan). […] As with CREB-induced anhedonia, dynorphin is critically involved in CREB-induced despair. Furthermore, they indicate that disruption of CREB function in this region may have antidepressant actions.

Data set [2] concerns rats. The data set is described as follows: Locomotor activity in automated activity chambers 24 hours after first FST. The conditions noted are these: for Activity: high doses, vs vehicle (0 mg/kg), FIG. 3B; for Locomotor effects / non-specific motor function: after ICV injection, vs vehicle control, FIG. 6B.
Description: To examine the effects of gene transfer and antidepressant therapy on locomotor activity, groups of rats were tested for 1 hour in automated activity chambers 24 hours after the first FST.
For data set [3] the following is noted: following systemic administration; cited from earlier work.
For data set [4] the following is noted: humans; cited from earlier work.
For data set [5], the system named is rats. Put plainly: Cocaine place conditioning after HSV gene transfer into the NAc. The data set is classed as in vivo, rat. The conditions noted are these: cocaine 5.0 mg/kg IP, FIG. 2B. How it is done: Place conditioning was performed in a three compartment apparatus. During screening (day 0), rats were placed in the small (12×18×33 cm) central compartment and were allowed to explore the entire apparatus for 30 minutes. The compartments differed in floor texture, wall striping, and lighting. Rats showing no baseline preference were used for the study. Rats received bilateral microinjections (2.0 μl per side) at AP+1.7 mm, Lat±2.3 mm, and DV 6.8 mm. Injections were made over 10 minutes using a 26 gauge needle.
Behavioral testing began on day 3 after vector injection. On the first conditioning trial of each day, rats received saline (1 ml/kg, i.p.) and were confined to one of the large (24×18×33 cm) side compartments of the apparatus. After three hours, rats received cocaine (1.25 mg/kg, i.p.) and were confined to the other side compartment. Three types of conditioning session were used: a one hour pairing session where the animals were placed immediately into the apparatus immediately after treatment for one hour; 15 minute pairing session where the animals were placed immediately into the apparatus immediately after treatment for 15 minutes; or a delayed pairing session where the animals were placed in the apparatus for one hour following a 15 minute delay from drug exposure. […]

Each structure is given as a SMILES string. Entries after “also recorded” stand apart in the source; their conditions may differ.

In the case of `CNCCCN1c2ccccc2CCc2ccccc21` [DMI, desipramine], the “Latencies to become immobile on the re-test day in the FST” value in data set [1] was “increased”. Besides, the Activity entry in data set [2] is given as “decreased by high doses”.
As to `CNCCC(Oc1ccc(C(F)(F)F)cc1)c1ccccc1` (stereo not drawn) [FLX, fluoxetine], the “Latencies to become immobile on the re-test day in the FST” value in data set [1] is given as “increased”. Besides, the Activity result in data set [2] is given as “decreased by high doses”.
Regarding `NC(N)=Nc1ccc2[nH]c3c(c2c1)C[C@@]1(O)[C@H]2Cc4ccc(O)c5c4[C@@]1(CCN2CC1CC1)[C@H]3O5` [GNTI, 5′-guanidinyl-17-(cyclopropylmethyl)-6,7-dehydro-4,5α-epoxy-3,14-dihydroxy-6,7-2′,3′-indolomorphinan], the “Potency relative to norBNI for increasing latencies to become immobile in the FST” value in data set [1] (ICV, FIG. 6A) is “roughly equipotent to norBNI”. In data set [1], the “Latencies to become immobile in the FST” value is recorded as “significantly longer latencies than the control group; also recorded: dose-dependently increased latencies to become immobile”. Also, the “Penetration of the blood-brain-barrier” value in data set [3] is “neither compound can penetrate the blood-brain-barrier”. In addition, the “Locomotor effects / non-specific motor function” value in data set [2] is on record as “Neither compound affected non-specific motor function”.
Regarding `CN1Cc2c(N)cccc2C(c2ccccc2)C1` (stereo not drawn) [Nomifensine], in data set [4], the Adverse reactions result is listed as “caused lethal allergic reactions in some people” and the “Antidepressant efficacy in the clinic” value is listed as “clinically effective antidepressant”.
As to `COC(=O)[C@H]1[C@@H](OC(=O)c2ccccc2)C[C@@H]2CC[C@H]1N2C` [cocaine], the “Place preference, time spent in cocaine-associated environments” value is “no effect” in data set [5] (HSV-CREB group); approximately 600 s in data set [5] (HSV-mCREB and vehicle groups).
For the compound `Oc1ccc2c3c1O[C@H]1c4[nH]c5c(c4C[C@@]4(O)[C@@H](C2)N(CC2CC2)CC[C@]314)C[C@@]1(O)[C@H]2Cc3ccc(O)c4c3[C@@]1(CCN2CC1CC1)[C@H]5O4` [norBNI, nor-binaltorphimine], the “Latencies to become immobile in the FST” value in data set [1] is “dose-dependently increased latencies to become immobile; also recorded: significantly longer latencies than the control group”. Besides, the “Penetration of the blood-brain-barrier” value in data set [3] is recorded as “neither compound can penetrate the blood-brain-barrier”. Further, the “Locomotor effects / non-specific motor function” value in data set [2] is reported as “Neither compound affected non-specific motor function”.

These data come from patent US6528518B2, “Treatment of depression with kappa receptor antagonists” (The McLean Hospital Corporation, priority 2000, dated 2003).
